Experimental data as given in PubChem BioAssay (NCI).
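Five compound concentrations were applied to cells in 96-well plates for 48 hours; endpoints were derived by simple linear interpolation of the resulting dose-response curve. At the TGI there is no net growth.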

How the values were obtained:
Experiment in all cases: NCI-60 cell line screen, 48 h
[1] = system: HCT-15 colon
[2] = system: OVCAR-3 ovarian
[3] = system: HCC-2998 colon
[4] = system: DMS 114 small cell lung
[5] = system: A498 renal
[6] = system: SK-OV-3 ovarian
[7] = system: UACC-62 melanoma
[8] = system: NCI-H23 lung
[9] = system: M19-MEL melanoma
[10] = system: SNB-19 CNS
[11] = system: CAKI-1 renal
[12] = system: A549 NSCLC
[13] = system: NCI-H226 lung
[14] = system: HT29 colon
[15] = system: NCI-H522 lung
[16] = system: MALME-3M melanoma
[17] = system: SNB-75 CNS
[18] = system: SNB-78 CNS
[19] = system: SK-MEL-28 melanoma
[20] = system: IGROV1 ovarian
[21] = system: DLD-1 colon
[22] = system: UACC-257 melanoma
[23] = system: COLO 205 colon
[24] = system: OVCAR-4 ovarian
[25] = system: TK-10 renal
[26] = system: HL-60(TB) leukemia
[27] = system: HOP-92 NSCLC
[28] = system: HOP-62 NSCLC
[29] = system: SF-539 CNS
[30] = system: XF 498 CNS
[31] = system: K-562 leukemia
[32] = system: 786-0 renal
[33] = system: M14 melanoma
[34] = system: SW-620 colon
[35] = system: SN12C renal
[36] = system: HCT-116 colon
[37] = system: CCRF-CEM leukemia
[38] = system: LXFL 529 NSCLC
[39] = system: DMS 273 small cell lung
[40] = system: SF-268 CNS
[41] = system: ACHN renal
[42] = system: RXF 393 renal
[43] = system: RPMI-8226 leukemia
[44] = system: SR leukemia
[45] = system: SF-295 CNS
[46] = system: OVCAR-8 ovarian
[47] = system: NCI-H460 lung
[48] = system: SK-MEL-5 melanoma
[49] = system: EKVX NSCLC
[50] = system: KM20L2 colon
[51] = system: LOX IMVI melanoma
[52] = system: MOLT-4 leukemia
[53] = system: KM12 colon
[54] = system: UO-31 renal
[55] = system: SK-MEL-2 melanoma
[56] = system: HOP-18 NSCLC
[57] = system: U251 CNS
[58] = system: OVCAR-5 ovarian

O=c1c2cc(Br)ccc2nc(CNc2ccccc2)n1-c1ccccc1
TGI [1]: > 47.9 µM
TGI [2]: 48.5 µM
TGI [3]: 33.7 µM
TGI [4]: 25.6 µM
TGI [5]: 93.4 µM
TGI [6]: > 96.4 µM
TGI [7]: 23.5 µM
TGI [8]: 34.1 µM
TGI [9]: 29.7 µM
TGI [10]: > 72.1 µM
TGI [11]: 11.6 µM
TGI [12]: > 62.7 µM
TGI [13]: 43.9 µM
TGI [14]: 46.2 µM
TGI [15]: 19.9 µM
TGI [16]: 28.4 µM
TGI [17]: > 59.5 µM
TGI [18]: 57.9 µM
TGI [19]: > 65.6 µM
TGI [20]: 36.8 µM
TGI [21]: 21.6 µM
TGI [22]: 98 µM
TGI [23]: 31.2 µM
TGI [24]: 23 µM
TGI [25]: 45.5 µM
TGI [26]: 39.7 µM
TGI [27]: 37.8 µM
TGI [28]: > 60.6 µM
TGI [29]: 32.7 µM
TGI [30]: 29.1 µM
TGI [31]: 58.1 µM
TGI [32]: 28.4 µM
TGI [33]: 47.6 µM
TGI [34]: 27.5 µM
TGI [35]: 29 µM
TGI [36]: 33.9 µM
TGI [37]: 13.7 µM
TGI [38]: 36.9 µM
TGI [39]: > 100 µM
TGI [40]: > 54.7 µM
TGI [41]: > 49.9 µM
TGI [42]: 44.4 µM
TGI [43]: > 54.9 µM
TGI [44]: > 30.4 µM
TGI [45]: > 58 µM
TGI [46]: > 57 µM
TGI [47]: 45.4 µM
TGI [48]: 38.1 µM
TGI [49]: 40.7 µM
TGI [50]: > 100 µM
TGI [51]: 19.6 µM
TGI [52]: > 67.7 µM
TGI [53]: > 100 µM
TGI [54]: > 57.8 µM
TGI [55]: 62.3 µM
TGI [56]: > 53.3 µM
TGI [57]: 31.8 µM
TGI [58]: > 100 µM

CCC12C=C(C(=O)OC)N3c4ccccc4C4CCN(CCC1)C2C43 (stereo unspecified)
TGI [1]: > 100 µM
TGI [2]: > 100 µM
TGI [3]: > 100 µM
TGI [4]: > 100 µM
TGI [5]: > 100 µM
TGI [6]: > 100 µM
TGI [7]: > 100 µM
TGI [8]: > 100 µM
TGI [9]: > 100 µM
TGI [10]: > 100 µM
TGI [11]: > 100 µM
TGI [12]: > 100 µM
TGI [13]: 82.5 µM
TGI [14]: > 100 µM
TGI [15]: > 100 µM
TGI [16]: 70.4 µM
TGI [17]: > 100 µM
TGI [18]: > 100 µM
TGI [19]: > 100 µM
TGI [20]: > 100 µM
TGI [21]: > 100 µM
TGI [22]: > 100 µM
TGI [23]: > 100 µM
TGI [24]: > 100 µM
TGI [25]: > 100 µM
TGI [26]: > 100 µM
TGI [27]: > 100 µM
TGI [28]: 99.8 µM
TGI [29]: > 100 µM
TGI [31]: > 100 µM
TGI [32]: 60.9 µM
TGI [33]: > 100 µM
TGI [34]: > 100 µM
TGI [35]: > 100 µM
TGI [36]: > 100 µM
TGI [37]: > 100 µM
TGI [38]: > 100 µM
TGI [39]: > 100 µM
TGI [40]: > 100 µM
TGI [41]: > 100 µM
TGI [42]: > 100 µM
TGI [43]: > 100 µM
TGI [45]: > 100 µM
TGI [46]: > 100 µM
TGI [48]: > 100 µM
TGI [49]: > 100 µM
TGI [50]: 56.7 µM
TGI [51]: > 100 µM
TGI [52]: > 100 µM
TGI [53]: > 100 µM
TGI [54]: > 100 µM
TGI [55]: > 100 µM
TGI [56]: > 100 µM
TGI [57]: > 100 µM
TGI [58]: > 100 µM

Cc1ccccc1NC(=O)C1C(=O)N(c2ccccc2C)C(=O)/C1=N\NC(N)=O (stereo unspecified)
TGI [1]: > 100 µM
TGI [2]: > 100 µM
TGI [3]: > 100 µM
TGI [4]: > 100 µM
TGI [5]: > 100 µM
TGI [7]: > 100 µM
TGI [8]: > 100 µM
TGI [9]: > 100 µM
TGI [10]: > 100 µM
TGI [11]: > 100 µM
TGI [12]: > 100 µM
TGI [14]: > 100 µM
TGI [15]: > 100 µM
TGI [16]: > 100 µM
TGI [17]: 83.7 µM
TGI [18]: > 100 µM
TGI [19]: > 100 µM
TGI [20]: > 100 µM
TGI [21]: > 100 µM
TGI [22]: > 100 µM
TGI [23]: > 100 µM
TGI [24]: > 100 µM
TGI [25]: > 100 µM
TGI [26]: > 100 µM
TGI [27]: > 100 µM
TGI [28]: > 100 µM
TGI [29]: > 100 µM
TGI [31]: > 100 µM
TGI [32]: > 100 µM
TGI [33]: > 100 µM
TGI [34]: > 100 µM
TGI [35]: > 100 µM
TGI [36]: > 100 µM
TGI [37]: > 100 µM
TGI [38]: > 100 µM
TGI [39]: > 100 µM
TGI [40]: > 100 µM
TGI [41]: > 100 µM
TGI [42]: > 100 µM
TGI [44]: > 100 µM
TGI [45]: > 100 µM
TGI [46]: > 100 µM
TGI [47]: > 100 µM
TGI [48]: > 100 µM
TGI [49]: > 100 µM
TGI [50]: > 100 µM
TGI [52]: > 100 µM
TGI [53]: > 100 µM
TGI [54]: > 100 µM
TGI [55]: > 100 µM
TGI [56]: > 100 µM
TGI [57]: > 100 µM
TGI [58]: > 100 µM
